Source: ChEMBL document CHEMBL3407472, “Multi-parameter optimization of aza-follow-ups to BI 207524, a thumb pocket 1 HCV NS5B polymerase inhibitor. Part 2: Impact of lipophilicity on promiscuity and in vivo toxicity” (Bioorg Med Chem Lett, 2015)

What was measured:
Hepatitis C virus [1] = assay: Antiviral activity against Hepatitis C virus genotype 1b infected in human Huh cells assessed as inhibition of viral replication by RT-PCR-based replicon assay; assay type: functional, cell-based, Hepacivirus hominis
Hepatitis C virus [2] = assay: Antiviral activity against Hepatitis C virus genotype 1a infected in human Huh cells assessed as inhibition of viral replication by RT-PCR-based replicon assay; assay type: functional, cell-based, Hepacivirus hominis; details: subtype 1a
[3] = Half life in human liver microsomes at 2 uM; assay type: ADME
[4] = Permeability from apical to basolateral side of human Caco2 cells; assay type: ADME, cell-based; details: Caco-2, read-out: permeability
[5] = Lipophilicity, log D of the compound at pH 7.4; assay type: physicochemical; details: buffer
[6] = Half life in rat liver microsomes at 2 uM; assay type: ADME
[7] = Half life in cynomolgous monkey liver microsomes at 2 uM; assay type: ADME, Macaca fascicularis; details: cynomolgus monkey
[8] = Half life in dog liver microsomes at 2 uM; assay type: ADME, Canis lupus familiaris
[9] = Cmax in rat at 5 mg/kg, po and 2 mg/kg, iv; assay type: ADME, organism-based; details: in vivo
[10] = Cmax in cynomolgous monkey at 5 mg/kg, po and 2 mg/kg, iv; assay type: ADME, organism-based, Macaca fascicularis; details: cynomolgus monkey, in vivo
[11] = Cmax in dog at 5 mg/kg, po and 2 mg/kg, iv; assay type: ADME, organism-based, Canis lupus familiaris; details: in vivo
[12] = Half life in cynomolgous monkey at 5 mg/kg, po and 2 mg/kg, iv; assay type: ADME, organism-based, Macaca fascicularis; details: cynomolgus monkey, in vivo
[13] = Half life in rat at 5 mg/kg, po and 2 mg/kg, iv; assay type: ADME, organism-based; details: in vivo
[14] = AUC in rat at 5 mg/kg, po and 2 mg/kg, iv; assay type: ADME, organism-based; details: plasma
[15] = AUC in cynomolgous monkey at 5 mg/kg, po and 2 mg/kg, iv; assay type: ADME, organism-based, Macaca fascicularis; details: cynomolgus monkey, plasma
[16] = AUC in dog at 5 mg/kg, po and 2 mg/kg, iv; assay type: ADME, organism-based, Canis lupus familiaris; details: plasma
[17] = Half life in dog at 5 mg/kg, po and 2 mg/kg, iv; assay type: ADME, organism-based, Canis lupus familiaris; details: in vivo
[18] = Volume of distribution at steady state in rat at 5 mg/kg, po and 2 mg/kg, iv; assay type: ADME, organism-based; details: in vivo, read-out: Vdss
[19] = Volume of distribution at steady state in cynomolgous monkey at 5 mg/kg, po and 2 mg/kg, iv; assay type: ADME, organism-based, Macaca fascicularis; details: cynomolgus monkey, in vivo, read-out: Vdss
[20] = Volume of distribution at steady state in dog at 5 mg/kg, po and 2 mg/kg, iv; assay type: ADME, organism-based, Canis lupus familiaris; details: in vivo, read-out: Vdss
[21] = Clearance in rat at 5 mg/kg, po and 2 mg/kg, iv; assay type: ADME, organism-based; details: in vivo
[22] = Clearance in cynomolgous monkey at 5 mg/kg, po and 2 mg/kg, iv; assay type: ADME, organism-based, Macaca fascicularis; details: cynomolgus monkey, in vivo
[23] = Clearance in dog at 5 mg/kg, po and 2 mg/kg, iv; assay type: ADME, organism-based, Canis lupus familiaris; details: in vivo
[24] = Bioavailability in rat at 5 mg/kg, po and 2 mg/kg, iv; assay type: ADME, organism-based; details: in vivo
[25] = Bioavailability in cynomolgous monkey at 5 mg/kg, po and 2 mg/kg, iv; assay type: ADME, organism-based, Macaca fascicularis; details: cynomolgus monkey, in vivo
[26] = Bioavailability in dog at 5 mg/kg, po and 2 mg/kg, iv; assay type: ADME, organism-based, Canis lupus familiaris; details: in vivo
[27] = Ratio of drug uptake in liver to plasma of rat at 5 mg/kg, po and 2 mg/kg, iv after 6 to 8 hrs; assay type: ADME, organism-based
[28] = target: Voltage-gated inwardly rectifying potassium channel KCNH2 (Homo sapiens, UniProt Q12809); assay: Inhibition of human ERG channel
Voltage-gated inwardly rectifying potassium channel KCNH2, sequence (Q12809 whole entry): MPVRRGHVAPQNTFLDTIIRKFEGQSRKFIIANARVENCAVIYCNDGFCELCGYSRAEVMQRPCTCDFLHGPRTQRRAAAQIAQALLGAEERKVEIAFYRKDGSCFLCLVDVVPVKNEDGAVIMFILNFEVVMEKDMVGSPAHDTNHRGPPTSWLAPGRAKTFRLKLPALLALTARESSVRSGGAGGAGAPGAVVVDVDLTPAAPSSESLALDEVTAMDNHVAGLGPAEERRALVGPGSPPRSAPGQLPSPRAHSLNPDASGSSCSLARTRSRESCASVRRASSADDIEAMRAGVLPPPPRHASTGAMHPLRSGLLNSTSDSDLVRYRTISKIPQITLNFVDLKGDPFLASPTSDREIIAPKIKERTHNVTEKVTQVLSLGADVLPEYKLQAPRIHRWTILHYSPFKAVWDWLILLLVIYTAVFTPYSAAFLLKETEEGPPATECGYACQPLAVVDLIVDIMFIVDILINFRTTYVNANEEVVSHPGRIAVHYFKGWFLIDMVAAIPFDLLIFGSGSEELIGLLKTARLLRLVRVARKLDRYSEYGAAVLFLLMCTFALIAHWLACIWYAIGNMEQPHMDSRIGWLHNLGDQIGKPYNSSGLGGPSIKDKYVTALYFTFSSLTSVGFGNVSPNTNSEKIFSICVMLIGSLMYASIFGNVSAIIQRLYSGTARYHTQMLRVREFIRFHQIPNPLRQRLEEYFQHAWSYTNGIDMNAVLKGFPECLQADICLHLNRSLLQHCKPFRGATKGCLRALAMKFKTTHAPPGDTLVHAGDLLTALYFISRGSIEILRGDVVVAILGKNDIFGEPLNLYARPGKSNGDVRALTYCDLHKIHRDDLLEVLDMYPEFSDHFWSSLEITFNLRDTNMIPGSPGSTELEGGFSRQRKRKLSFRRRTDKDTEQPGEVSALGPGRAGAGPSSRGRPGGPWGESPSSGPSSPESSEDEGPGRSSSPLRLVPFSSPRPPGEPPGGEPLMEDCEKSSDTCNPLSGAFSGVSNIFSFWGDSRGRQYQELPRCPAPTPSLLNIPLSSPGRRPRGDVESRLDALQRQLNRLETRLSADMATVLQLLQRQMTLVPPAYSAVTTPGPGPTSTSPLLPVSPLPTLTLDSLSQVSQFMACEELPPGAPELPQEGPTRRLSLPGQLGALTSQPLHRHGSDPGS

[29] = Induction of action potential duration in guinea pig papillary muscle cells at 30 uM; assay type: functional, Cavia porcellus

EC50 (Hepatitis C virus [1]): 9 nM
EC50 (Hepatitis C virus [2]): 22 nM
half-life at 2 µM [3]: 103 min
Papp A→B [4]: 15 ×10⁻⁶ cm/s
logD [5]: > 4.9
half-life at 2 µM [6]: 41 min
half-life at 2 µM [7]: 13 min
half-life at 2 µM [8]: 132 min
Cmax [9]: 4.5 µM
Cmax [10]: 4.4 µM
Cmax [11]: 5.9 µM
half-life [12]: 144 min
half-life [13]: 102 min
AUC [14]: 11 µM·h
AUC [15]: 14 µM·h
AUC [16]: 26 µM·h
half-life [17]: 180 min
Vd [18]: 0.4 L/kg
Vd [19]: 0.34 L/kg
Vd [20]: 0.34 L/kg
clearance [21]: 4.2 mL/min/kg
clearance [22]: 4.1 mL/min/kg
clearance [23]: 1.9 mL/min/kg
bioavailability [24]: 36%
bioavailability [25]: 45%
bioavailability [26]: 42%
Kp [27]: 4
Compound: CCOc1nc(NC(=O)C2(NC(=O)c3ccc4c(c3)c(C)c(-c3ccc(F)cn3)n4C3CCCCC3)CCC2)ccc1/C=C/C(=O)O
IC50 [28]: 1400 nM
Activity [29]: 20%
